Experiment: xn = mol fraction of the nth substance listed

ClC(Cl)(Cl)Cl + CCCCOC(C)=O
101.33 kPa
Conditions	viscosity [mPa·s]
303.15 K, x1 = 0.1942	0.664
303.15 K, x1 = 0.3145	0.685
303.15 K, x1 = 0.4207	0.702
303.15 K, x1 = 0.5252	0.72
303.15 K, x1 = 0.5754	0.732
303.15 K, x1 = 0.7049	0.759
303.15 K, x1 = 0.7537	0.774
303.15 K, x1 = 0.8196	0.788
303.15 K, x1 = 0.8765	0.803
303.15 K, x1 = 0.9415	0.823
313.15 K, x1 = 0.2041	0.587
313.15 K, x1 = 0.4028	0.619
313.15 K, x1 = 0.5068	0.634
313.15 K, x1 = 0.604	0.651
313.15 K, x1 = 0.8058	0.695

CC1CCCCC1O (stereo not given) + NC1CCCCC1
viscosity [mPa·s], 100 kPa
Conditions	x1 = 0.04642	x1 = 0.09319	x1 = 0.1878	x1 = 0.2839	x1 = 0.3814	x1 = 0.4805	x1 = 0.5811	x1 = 0.6834	x1 = 0.7872	x1 = 0.8928
293.15 K	2.657	2.965	3.533	4.632	5.819	7.685	11.76	15.63	20	27.62
298.15 K	2.328	2.582	3.048	3.894	4.852	6.53	9.343	12.39	15.17	19.95
303.15 K	2.057	2.27	2.656	3.351	4.096	5.343	7.677	9.722	11.73	14.98
308.15 K	1.833	2.008	2.335	3.042	3.498	4.468	6.235	7.748	9.687	11.45
313.15 K	1.645	1.791	2.068	2.65	3.018	3.782	5.118	6.295	7.365	8.876

ClC(Cl)(Cl)Cl + CC(C)CO
viscosity [mPa·s], 101 kPa
Conditions	x2 = 0.0126	x2 = 0.0461	x2 = 0.0853	x2 = 0.2088	x2 = 0.2911	x2 = 0.411	x2 = 0.5341	x2 = 0.7116	x2 = 0.8407
298.15 K	0.888	0.896	0.914	0.995	1.079	1.251	1.521	2.076	2.631
308.15 K	0.774	0.774	0.791	0.845	0.909	1.023	1.206	1.581	1.942
318.15 K	0.679	0.679	0.695	0.726	0.77	0.851	0.978	1.235	1.482

ClC(Cl)(Cl)Cl + Cc1cccc(C)c1
298.15 K, 101 kPa
Conditions	viscosity [mPa·s]
x1 = 0.1974	0.609
x1 = 0.3803	0.665
x1 = 0.4687	0.716
x1 = 0.5267	0.751
x1 = 0.5964	0.792
x1 = 0.7155	0.851
x1 = 0.8693	0.894
x1 = 0.9105	0.902

CCCOC(C)=O + COCCOCCOCCOCCOC
viscosity [mPa·s], 101 kPa
Conditions	298.15 K	308.15 K	318.15 K
x1 = 0.01	3.323	2.605	2.085
x2 = 0.0066	0.564	0.496	0.445
x2 = 0.0294	0.602	0.529	0.471
x2 = 0.0477	0.633	0.554	0.494
x2 = 0.0676	0.67	0.585	0.519
x2 = 0.103	0.746	0.64	0.562
x2 = 0.1448	0.825	0.716	0.619
x2 = 0.1941	0.93	0.794	0.689
x2 = 0.2422	1.049	0.881	0.757
x2 = 0.2932	1.161	0.978	0.834
x2 = 0.3625	1.343	1.12	0.943
x2 = 0.4204	1.504	1.234	1.038
x2 = 0.4781	1.663	1.364	1.139
x2 = 0.5293	1.827	1.472	1.22
x2 = 0.5986	2.014	1.633	1.345
x2 = 0.6621	2.209	1.784	1.458
x2 = 0.7157	2.378	1.924	1.559
x2 = 0.7802	2.61	2.074	1.679
x2 = 0.8069	2.687	2.142	1.737
x2 = 0.8324	2.77	2.203	1.78

From the CheMixHub viscosity set
